Experiment [1] has as its system Rattus norvegicus. The experiment is described as follows: Anticonvulsant activity against maximal electroshock-induced convulsion in Rattus norvegicus albino (rat) assessed as stupor convulsion time at 100 mg/kg administered 1 hr before test. It is filed as functional. On the technique in general: Protection in the maximal electroshock model is a classic sign of anticonvulsant action.

Experiment [2] has as its system Rattus norvegicus. The experiment is described as follows: Anticonvulsant activity against maximal electroshock-induced convulsion in Rattus norvegicus albino (rat) assessed as tonic flexor convulsion time at 25 mg/kg administered 1 hr before test. Format: functional.
The subject of experiment [3] is Rattus norvegicus. The experiment is described as follows: Anticonvulsant activity against maximal electroshock-induced convulsion in Rattus norvegicus albino (rat) assessed as recovery from convulsion at 25 to 100 mg/kg administered 1 hr before test. Format: functional, organism-based.
Experiment [4] deals with Rattus norvegicus. As to the kind of experiment: Anticonvulsant activity against maximal electroshock-induced convulsion in Rattus norvegicus albino (rat) assessed as clonus convulsion time at 100 mg/kg administered 1 hr before test. It is filed as functional.
Experiment [5] deals with Rattus norvegicus. The experiment is described as follows: Anticonvulsant activity against maximal electroshock-induced convulsion in Rattus norvegicus albino (rat) assessed as tonic extensor convulsion time at 50 mg/kg administered 1 hr before test. It is filed as functional.
The test system of experiment [6] is Rattus norvegicus. The experiment is described as follows: Anticonvulsant activity against maximal electroshock-induced convulsion in Rattus norvegicus albino (rat) assessed as tonic extensor convulsion time at 25 mg/kg administered 1 hr before test. Format: functional.
The test system of experiment [7] is Rattus norvegicus. As to the kind of experiment: Anticonvulsant activity against maximal electroshock-induced convulsion in Rattus norvegicus albino (rat) assessed as stupor convulsion time at 25 mg/kg administered 1 hr before test. It is filed as functional.
Experiment [8] has as its system Rattus norvegicus. As to the kind of experiment: Anticonvulsant activity against maximal electroshock-induced convulsion in Rattus norvegicus albino (rat) assessed as clonus convulsion time at 50 mg/kg administered 1 hr before test. It is filed as functional.
Experiment [9] relates to Rattus norvegicus. The experiment is described as follows: Anticonvulsant activity against maximal electroshock-induced convulsion in Rattus norvegicus albino (rat) assessed as tonic extensor convulsion time at 100 mg/kg administered 1 hr before test. Format: functional.
Experiment [10] deals with Rattus norvegicus. The experiment is described as follows: Anticonvulsant activity against maximal electroshock-induced convulsion inRattus norvegicus albino (rat) assessed as stupor convulsion time at 50 mg/kg administered 1 hr before test. It is filed as functional.
The test system of experiment [11] is Rattus norvegicus. The experiment is described as follows: Anticonvulsant activity against maximal electroshock-induced convulsion in Rattus norvegicus albino (rat) assessed as tonic flexor convulsion time at 100 mg/kg administered 1 hr before test. Format: functional.
In experiment [12] the test system is Rattus norvegicus. The experiment is described as follows: Anticonvulsant activity against maximal electroshock-induced convulsion in Rattus norvegicus albino (rat) assessed as clonus convulsion time at 25 mg/kg administered 1 hr before test. It is filed as functional.
Experiment [13] relates to Rattus norvegicus. As to the kind of experiment: Anticonvulsant activity against maximal electroshock-induced convulsion in Rattus norvegicus albino (rat) assessed as tonic flexor convulsion time at 50 mg/kg administered 1 hr before test. Format: functional.
For experiment [14], the system named is Rattus norvegicus. As to the kind of experiment: Anticonvulsant activity against maximal electroshock-induced convulsion in Rattus norvegicus albino (rat) assessed as recovery from convulsion at 25 mg/kg administered 1 hr before test. It is filed as functional, organism-based. Set-up: dose 25 mg/kg.

This note sets out measurements from ChEMBL document CHEMBL3045209, “Synthesis of a novel barbiturate from 1-chloro-2,4-dinitrobenzene as an anticonvulsant agent” (2008).

The source made the active and inactive calls. The rule behind the calls is not given here.

Take `O=C1CC(=O)NC(=O)N1` [BARBITURIC ACID]: the Time in the experiment with Rattus norvegicus [1] is 85.7 s; in the experiment on Rattus norvegicus [2], 4.2 s; in the experiment on Rattus norvegicus [4], 5.6 s; with Rattus norvegicus [5], 6.5 s; with Rattus norvegicus [6], 13.2 s; in the experiment on Rattus norvegicus [7], 105.5 s. Also, the Time amounted to 5.1 s in the experiment on Rattus norvegicus [8]; 2 s with Rattus norvegicus [9]; 82.2 s in the experiment with Rattus norvegicus [10]; 2.9 s in the experiment on Rattus norvegicus [11]; 7.2 s with Rattus norvegicus [12]; 3.1 s in the experiment on Rattus norvegicus [13]. For the same compound, the result with Rattus norvegicus [3] was Active.

With `O=C1NC(=O)C(c2ccccc2)(c2ccccc2)N1` [PHENYTOIN], the Time in the experiment on Rattus norvegicus [2] is given as 2.66 s; in the experiment with Rattus norvegicus [6], 0 s; in the experiment on Rattus norvegicus [7], 62.1 s; in the experiment with Rattus norvegicus [12], 4.6 s. For the same compound, the outcome with Rattus norvegicus [14] was Active.
